In patent publication US11358969B2, “Indole AHR inhibitors and uses thereof” (Ikena Oncology, Inc., priority 2017, dated 2022):

Tests used:
[1] = In Vitro Mouse liver S9 Metabolic Stability Assay (Example 1D); assay type: in vitro ADME; conditions: CD-1 mouse liver S9, 1 μM compound, 1 mg/mL S9 protein, 37° C., NADPH regenerating system, UDPGA, PAPS
Method: CD-1 mouse liver S9 were purchased from Corning or XenoTech LLC or BioreclamationIVT, LLC or WuXi prepared. The cells were stored at −80° C. in a freezer before use. β-Nicotinamide adenine dinucleotide phosphate (NADP), Glucose 6-phosphate (G6P), Glucose 6-phosphate dehydrogenase from yeast (G6PDH), Uridine 5′-diphophoglucuronic acid trisodium salt (UDPGA) and Adenosine 3′-phosphate 5′-phosphosulfate lithium salt hydrate (PAPS) were available commercially from Sigma.
Compounds were diluted in DMSO to make 10 mM stock solution. 5 μL of this stock solution (10 mM, DMSO) was diluted with 45 μL DMSO and 450 μL 50% Methanol/Water to make intermediate stock solution (100 μM, 45% MeOH, 10% DMSO). 50 μL of intermediate stock solution was diluted with 450 μL 100 mM phosphate buffer to make a final stock solution (10 μM, 4.5% MeOH, 1% DMSO). 10 uL of final stock solution was added to 90 uL liver S9 system (final concentration of 1 μM, 0.45% MeOH, 0.1% DMSO).
Test compounds were incubated at 37° C. with liver S9 (pooled from multiple donors) at 1 μM in the presence of a NADPH regenerating system, UDPGA, and PAPS at 1 mg/mL S9 protein. Time samples (0 and 60 minutes) were removed and immediately mixed with cold acetonitrile containing internal standard (IS). Samples were analyzed by LC/MS/MS and disappearance of test compounds were assessed based on peak area ratios of analyte /IS (no standard curve). All samples were injected and analyzed using LC-MS/MS. The analyte/internal standard peak area ratios were converted to percentage remaining (% Remaining) with the following equation: % Remaining at 60 min=(Peak area ratio of analyte to IS at 60 min/Peak area ratio of analyte to IS at t=0)×100%. Table 5. Mouse Stability Data According to Example 1D.

[2] = Mouse Pharmacokinetic Study (Example 1C); assay type: in vivo; conditions: plasma, CD-1 mice; for bioavailability / AUC(0-inf) / AUC(0-t) / clearance / half-life / Vd / Cmax / Tmax: mouse; for Vd: read-out: Vdss
Method: Formulations of compounds set forth in Table 4 were administered intravenously or orally via gavage to CD-1 mice. Typically, at 0.167, 0.5, 1, 2, 4, 6, 12, and 24 hours post-dose, blood was collected and processed to plasma by centrifugation and stored at −80° C. until analysis.
Internal standard was added to each sample prior to protein precipitation with acetonitrile. The precipitates were filtered through a Phree phospholipid removal filter plate and the samples were analyzed by LC/MS/MS. A standard curve was prepared in plasma from typically from 1.0 ng/mL to 3000 ng/mL and processed in the same manner as the samples. Sample analysis was typically performed on a suitable LC/MS/MS system fitted with an analytical UPLC column and compounds eluted from the analytical column with a gradient from 30-95% 0.1% formic acid (v/v) in ACN: 0.1% formic acid (v/v) in water. Mass spectrometric detection of test compound and the internal standard was performed by MRM in positive mode. The pharmacokinetics of each compound were analyzed by Phoenix WinNonlin software (Pharsight, St. Louis, Mo.) via non-compartmental analysis.

[3] = target: T1, AHR (UniProt P35869); assay: DRE-Luciferase Reporter Assay (Alternate Method) (Example 1B); assay type: cell-based, murine or human; conditions: cell line and AHR activating ligand not specified
T1 construct: IC50
T1 sequence (P35869 1-848): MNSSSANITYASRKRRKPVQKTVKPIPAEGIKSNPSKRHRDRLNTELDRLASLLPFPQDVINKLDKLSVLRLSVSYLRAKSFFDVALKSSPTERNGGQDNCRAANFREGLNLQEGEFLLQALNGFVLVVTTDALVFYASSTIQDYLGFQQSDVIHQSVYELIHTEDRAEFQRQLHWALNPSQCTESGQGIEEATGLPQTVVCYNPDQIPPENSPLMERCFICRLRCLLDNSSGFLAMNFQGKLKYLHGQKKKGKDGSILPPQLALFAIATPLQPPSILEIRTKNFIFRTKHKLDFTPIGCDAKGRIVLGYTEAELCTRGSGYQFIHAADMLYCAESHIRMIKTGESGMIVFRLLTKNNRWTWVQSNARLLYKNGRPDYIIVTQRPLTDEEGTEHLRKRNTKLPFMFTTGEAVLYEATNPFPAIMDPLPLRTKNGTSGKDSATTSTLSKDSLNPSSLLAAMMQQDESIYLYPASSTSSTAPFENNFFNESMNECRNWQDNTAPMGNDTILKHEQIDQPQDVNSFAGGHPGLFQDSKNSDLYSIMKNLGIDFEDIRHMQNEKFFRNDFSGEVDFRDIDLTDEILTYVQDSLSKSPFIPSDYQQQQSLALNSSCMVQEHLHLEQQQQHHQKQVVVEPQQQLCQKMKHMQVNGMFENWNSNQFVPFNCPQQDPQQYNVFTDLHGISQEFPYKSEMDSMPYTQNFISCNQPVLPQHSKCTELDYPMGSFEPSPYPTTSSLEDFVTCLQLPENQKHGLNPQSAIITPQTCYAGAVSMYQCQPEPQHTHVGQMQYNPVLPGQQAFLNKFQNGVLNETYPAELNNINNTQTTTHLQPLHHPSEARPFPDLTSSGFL

[4] = po, 15 mg/kg, 3.00 mg/mL in DMSO:solutol:water = 5:10:85, solution

Structure (SMILES) | Mouse S9 Stability: % Remaining After 60 Minutes [1] | bioavailability ([2]; po, 30 mg/kg) | AUC(0-inf) ([2]; iv, 3 mg/kg) | AUC(0-t) ([2]; iv, 3 mg/kg) | clearance ([2]; iv, 3 mg/kg) | half-life ([2]; iv, 3 mg/kg) | Vd ([2]; iv, 3 mg/kg) | AUC(0-inf) ([2]; po, 30 mg/kg) | AUC(0-t) ([2]; po, 30 mg/kg) | Cmax ([2]; po, 30 mg/kg) | Tmax ([2]; po, 30 mg/kg) | half-life ([2]; po, 30 mg/kg) | IC50 [3] | Tlast [2, 4] | bioavailability [2, 4] | Tmax [2, 4]
Fc1cncc(-c2cc(OC3CCCC3)nc(NCCc3c[nH]c4ccccc34)n2)c1 [I-59, 4-(Cyclopentoxy)-6-(5-fluoro-3-pyridyl)-N-[2-(1H-indol-3-yl)ethyl]pyrimidin-2-amine] | 11% | 22% | 949 ng·h/mL | 925 ng·h/mL | 53 mL/min/kg | 6.6 h | 11.2 L/kg | 2130 ng·h/mL | 2110 ng·h/mL | 719 ng/mL | 0.5 h | 4.3 h | < 0.5 µM |  |  | 
Cc1[nH]c2c(F)cccc2c1CCNc1nc(-c2cncc(F)c2)nc2c(C)cnn12 [I-202, N-[2-(7-Fluoro-2-methyl-1H-indol-3-yl)ethyl]-2-(5-fluoro-3-pyridyl)-8-methyl-pyrazolo[1,5-a][1,3,5]triazin-4-amine] | 0% |  |  |  |  |  |  |  |  |  |  |  | < 0.5 µM |  |  | 
CN(C)c1cnn2c(NCCc3c[nH]c4ccccc34)cc(-c3cncc(F)c3)nc12 [I-203, 5-(5-fluoro-3-pyridyl)-N7-[2-(1H-indol-3-yl)ethyl]-N3,N3-dimethyl-pyrazolo[1,5-a]pyrimidine-3,7-diamine] | 0% | 12% | 565 ng·h/mL | 555 ng·h/mL | 88.5 mL/min/kg | 2.3 h | 5.8 L/kg | 657 ng·h/mL | 656 ng·h/mL | 604 ng/mL | 0.2 h | 0.7 h | < 0.5 µM |  |  | 
CN(C)c1cnn2c(N[C@H]3Cc4ccc(O)cc4C3)cc(-c3cncc(F)c3)nc12 [I-204b, (2S)-2-[[3-(dimethylamino)-5-(5-fluoro-3-pyridyl)pyrazolo[1,5-a]pyrimidin-7-yl]amino]indan-5-ol] | 0% | 2% | 455 ng·h/mL | 454 ng·h/mL | 110 mL/min/kg | 0.9 h | 4 L/kg | 67 ng·h/mL | 63 ng·h/mL | 55 ng/mL | 0.2 h | 3.2 h | < 0.5 µM |  |  | 
Fc1cncc(-c2cc(NCCc3c[nH]c4cccnc34)n3nccc3n2)c1 [I-208, 5-(5-Fluoro-3-pyridyl)-N-[2-(1H-pyrrolo[3,2-b]pyridin-3-yl)ethyl]pyrazolo[1,5-a]pyrimidin-7-amine] | 0% |  |  |  |  |  |  |  |  |  |  |  | > 1.5 µM |  |  | 
Cc1cnn2c(NCCc3c[nH]c4cccnc34)cc(-c3cncc(F)c3)nc12 [I-209, 5-(5-Fluoro-3-pyridyl)-3-methyl-N-[2-(1H-pyrrolo[3,2-b]pyridin-3-yl)ethyl]pyrazolo[1,5-a]pyrimidin-7-amine] | 0% |  |  |  |  |  |  |  |  |  |  |  | 0.5 to 1 µM |  |  | 
Cc1[nH]c2c(F)cccc2c1CCNc1cc(-c2cncc(F)c2)nc2ccnn12 [I-214, N-[2-(7-Fluoro-2-methyl-1H-indol-3-yl)ethyl]-5-(5-fluoro-3-pyridyl)pyrazolo[1,5-a]pyrimidin-7-amine] | 0% |  |  |  |  |  |  |  |  |  |  |  | < 0.5 µM |  |  | 
Cc1[nH]c2c(F)cccc2c1CCNc1cc(-c2cncc(F)c2)nc2c(C)cnn12 [I-224, N-[2-(7-fluoro-2-methyl-1H-indol-3-yl)ethyl]-5-(5-fluoro-3-pyridyl)-3-methyl-pyrazolo[1,5-a]pyrimidin-7-amine] | 0% |  |  |  |  |  |  |  |  |  |  |  | < 0.5 µM |  |  | 
Cc1[nH]c2c(F)cccc2c1CCNc1cc(-c2cncc(F)c2)nc2c(C(F)(F)F)cnn12 [I-235, N-[2-(7-Fluoro-2-methyl-1H-indol-3-yl)ethyl]-5-(5-fluoro-3-pyridyl)-3-(trifluoromethyl)pyrazolo[1,5-a]pyrimidin-7-amine] | 2% |  |  |  |  |  |  |  |  |  |  |  | < 0.5 µM |  |  | 

Results, then the compound that gave them:

Mouse S9 Stability: % Remaining After 60 Minutes [1] | bioavailability ([2]; po, 30 mg/kg) | AUC(0-inf) ([2]; iv, 3 mg/kg) | AUC(0-t) ([2]; iv, 3 mg/kg) | clearance ([2]; iv, 3 mg/kg) | half-life ([2]; iv, 3 mg/kg) | Vd ([2]; iv, 3 mg/kg) | AUC(0-inf) ([2]; po, 30 mg/kg) | AUC(0-t) ([2]; po, 30 mg/kg) | Cmax ([2]; po, 30 mg/kg) | Tmax ([2]; po, 30 mg/kg) | half-life ([2]; po, 30 mg/kg) | IC50 [3] | Tlast [2, 4] | bioavailability [2, 4] | Tmax [2, 4] | Structure (SMILES)
0% | 7% | 537 ng·h/mL | 522 ng·h/mL | 93.1 mL/min/kg | 0.7 h | 2.7 L/kg | 373 ng·h/mL | 370 ng·h/mL | 574 ng/mL | 0.2 h | 0.8 h | < 0.5 µM |  |  |  | O=C(c1cnn2c(NCCc3c[nH]c4ccccc34)cc(-c3cncc(F)c3)nc12)N1CCOCC1 [I-65, [5-(5-Fluoro-3-pyridyl)-7-[2-(1H-indol-3-yl)ethylamino]pyrazolo[1,5-a]pyrimidin-3-yl]-morpholino-methanone]
0% |  | 92 ng·h/mL | 88 ng·h/mL | 540 mL/min/kg | 2.18 h | 43.2 L/kg |  |  |  |  |  | < 0.5 µM | 0 h | 0% | 0 h | Cc1[nH]c2c(F)cc(F)cc2c1CCNc1cc(-c2cncc(F)c2)nc2c(C(C)C)cnn12 [I-107, N-[2-(5,7-Difluoro-2-methyl-1H-indol-3-yl)ethyl]-5-(5-fluoro-3-pyridyl)-3-isopropyl-pyrazolo[1,5-a]pyrimidin-7-amine]
13% | 39% | 3030 ng·h/mL | 2410 ng·h/mL | 16.5 mL/min/kg | 12 h | 13.7 L/kg | 11200 ng·h/mL | 9360 ng·h/mL | 840 ng/mL | 2 h | 9.6 h | < 0.5 µM |  |  |  | Fc1cncc(-c2nc(N[C@@H]3CCc4[nH]c5ccccc5c4C3)n3ncc(Br)c3n2)c1 [I-154, (3R)—N-[8-Bromo-2-(5-fluoro-3-pyridyl)pyrazolo[1,5-a][1,3,5]triazin-4-yl]-2,3,4,9-tetrahydro-1H-carbazol-3-amine]
30% | 52% | 772 ng·h/mL | 765 ng·h/mL | 64.8 mL/min/kg | 4.3 h | 12.1 L/kg | 4050 ng·h/mL | 3960 ng·h/mL | 721 ng/mL | 1 h | 4.2 h | < 0.5 µM |  |  |  | C[C@@H](O)c1cnn2c(N[C@@H]3CCc4[nH]c5ccccc5c4C3)cc(-c3cncc(F)c3)nc12 [I-198a, (1R)-1-[5-(5-Fluoro-3-pyridyl)-7-[[(3R)-2,3,4,9-tetrahydro-1H-carbazol-3-yl]amino]pyrazolo[1,5-a]pyrimidin-3-yl]ethanol]
